We go through 19 compounds from patent US7585859B2, “PDE4B inhibitors and uses therefor” (Plexxikon, Inc., priority 2004, dated 2009).

Where two headings read alike, the source gives them in different places.

Common to all, as to format: biochemical
Experiment [1] concerns the target T1, PDE4B: The catalytic domain of human PDE4B from S152-S528 (Homo sapiens, UniProt Q07343).
T1 construct: His6 (N); thrombin cleavage site (N); made in house; host or cells: E. coli
Put plainly: PDE4 IC50 determination by Scintillation Proximity Assay, PDE4B. Put shortly: (§1)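 Hydrolysis of [^3H]cAMP measured by SPA with yttrium silicate beads, which bind the [^3H]AMP product strongly and cAMP weakly. Enzyme at 80 ng/ml for PDE4B, 4 ng/ml for PDE4D; 30 min at 30°.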

The next experiment addresses T2, PDE4D (Homo sapiens, UniProt Q08499).
T2 construct: PDE4D: The catalytic domain of human PDE4B from S3 16-V692; His6 (N); thrombin cleavage site (N); made in house; host or cells: E. coli
Briefly: PDE4 IC50 determination by Scintillation Proximity Assay, PDE4D. The method in brief: as §1
On the technique in general: In a scintillation proximity assay essentially only radioactivity close to the scintillant gives light.

Experiment [2] deals with T3, full-length human PDE4B2 isozyme (Homo sapiens, UniProt Q07343).
T3 construct: The full-length human PDE4B2 isozyme; His6 (N); TEV cleavage site (N); made in house; host or cells: baculovirus infected insect cells (unpurified lysate)
Put plainly: PDE4 IC50 determination by Scintillation Proximity Assay, PDE4B2. How it is done:
(§2) IC50s were determined by Scintillation Proximity Assay (SPA). The principle of the assay is based on the fact that cAMP, the PDE4 substrate, binds weakly to Yittrium Silicate SPA beads, whereas AMP, the product of PDE4 hydrolysis binds strongly. Thus, the extent of PDE4 hydrolysis of a sample of [^3H]cAMP can be measured because only the
(§3) [^3H]AMP produced by PDE4 hydrolysis will bind to the SPA beads and produce a scintillation signal.
(§4) PDE4 enzymes used for IC50 assays were:
PDE4B2: The full-length human PDE4B2 isozyme with an N-terminal His6 tag (SEQ ID NO: 18) and TEV cleavage site expressed in baculovirus infected insect cells. The enzyme was not purified from the cell lysates, so enzyme concentrations were not determined. Enzyme was stored in 50% glycerol at −20°.
(§5) Compounds tested (see Tables 3B, 4B and 5A for compounds and results) were 3-fold serially diluted 11 times in DMSO from a starting concentration of 4 mM or 40 μM, depending on compound potency. 1 μl of each dilution was transferred into duplicate wells of a white polystyrene 384-well assay plate (Coming #3705). In addition to the compound dilutions, each assay plate contained control wells with 1 μl of DMSO (to define 0% enzyme inhibition) or 1 μl of 200 μM roflumilast (to define 100% enzyme inhibition). Using a Beckman FX robot, 10 μl of [^3H] cAMP (Amersham TRK559) at 2 mCi/ml in assay buffer (50 mM Tris, pH 7.5; 8.3 mM MgCl; 1.7 mM EGTA; 0.01% BSA) was transferred to each assay well. Next, 10 μl of PDE4 enzyme in assay buffer was added and the plates were shaken for 30 s. at 1000 rpm to start the cAMP hydrolysis reaction. The concentrations of enzyme used were: PDE4B, 80 ng/ml; PDE4D, 4 ng/ml; PDE4B2, 2.5 μl of 50% glycerol stock/ml; PDE4D5 0.083 μl of 50% glycerol stock/ml. Assay plates were covered and incubated for 30 min. at 30°. Reactions were stopped by robotic addition of 10 μl of 5 mg/ml SPA beads (Amersham RPNQ0013) in 18 mM ZnSO4. The assay plates were covered with clear plastic film, centrifuged for 1 min. at 1000 RPM to settle the SPA beads, and counted using a Wallac TriLux scintillation counter. IC50's were calculated from the raw assay data by non-linear regression curve fitting using the Assay Explorer software package from MDL.

For experiment [3], the target named is T4, full-length human PDE4D5 isozyme (Homo sapiens, UniProt Q08499).
T4 construct: The full-length human PDE4D5 isozyme; His6 (N); TEV cleavage site (N); made in house; host or cells: baculovirus infected insect cells (unpurified lysate)
Put plainly: PDE4 IC50 determination by Scintillation Proximity Assay, PDE4D5. Particulars: Table 1B, Formula I compounds; read-out: IC50 PDE4D5. As for the experimental part:
as §2, §3, §4
PDE4D5: The full-length human PDE4D5 isozyme with an N-terminal His6 tag (SEQ ID NO: 18) and TEV cleavage site expressed in baculovirus infected insect cells. The enzyme was not purified from the cell lysates, so enzyme concentrations were not determined. Enzyme was stored in 50% glycerol at −20°.
as §5

The mark [4] stands for this setting: Table 1B, Formula I compounds, read-out: IC50 PDE4B.
The mark [5] stands for this setting: Table 1B, Formula I compounds, read-out: IC50 PDE4D.
The mark [6] stands for this setting: Table 1B, Formula I compounds, read-out: IC50 PDE4B2.

T4 sequence (Q08499 1-745 isoform Q08499-6): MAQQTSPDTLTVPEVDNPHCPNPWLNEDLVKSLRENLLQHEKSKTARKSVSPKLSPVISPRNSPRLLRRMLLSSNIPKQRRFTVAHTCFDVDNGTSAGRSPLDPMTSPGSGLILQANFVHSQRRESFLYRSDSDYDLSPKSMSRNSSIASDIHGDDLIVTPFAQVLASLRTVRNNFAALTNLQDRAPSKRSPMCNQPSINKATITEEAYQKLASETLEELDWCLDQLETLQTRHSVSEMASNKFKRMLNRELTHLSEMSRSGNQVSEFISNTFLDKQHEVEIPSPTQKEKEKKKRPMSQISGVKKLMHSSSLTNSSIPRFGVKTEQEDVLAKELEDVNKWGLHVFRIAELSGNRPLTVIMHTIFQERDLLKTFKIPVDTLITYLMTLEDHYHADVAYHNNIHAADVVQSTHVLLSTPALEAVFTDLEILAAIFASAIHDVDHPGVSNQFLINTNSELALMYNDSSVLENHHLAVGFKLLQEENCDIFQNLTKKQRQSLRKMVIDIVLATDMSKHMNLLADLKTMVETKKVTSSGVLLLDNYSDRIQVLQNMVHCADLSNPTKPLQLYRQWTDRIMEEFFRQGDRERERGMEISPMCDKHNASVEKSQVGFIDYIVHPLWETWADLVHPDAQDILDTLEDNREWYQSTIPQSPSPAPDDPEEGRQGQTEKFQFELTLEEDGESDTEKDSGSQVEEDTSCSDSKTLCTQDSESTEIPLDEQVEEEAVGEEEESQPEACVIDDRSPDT
T3 sequence (Q07343 1-564 isoform Q07343-2): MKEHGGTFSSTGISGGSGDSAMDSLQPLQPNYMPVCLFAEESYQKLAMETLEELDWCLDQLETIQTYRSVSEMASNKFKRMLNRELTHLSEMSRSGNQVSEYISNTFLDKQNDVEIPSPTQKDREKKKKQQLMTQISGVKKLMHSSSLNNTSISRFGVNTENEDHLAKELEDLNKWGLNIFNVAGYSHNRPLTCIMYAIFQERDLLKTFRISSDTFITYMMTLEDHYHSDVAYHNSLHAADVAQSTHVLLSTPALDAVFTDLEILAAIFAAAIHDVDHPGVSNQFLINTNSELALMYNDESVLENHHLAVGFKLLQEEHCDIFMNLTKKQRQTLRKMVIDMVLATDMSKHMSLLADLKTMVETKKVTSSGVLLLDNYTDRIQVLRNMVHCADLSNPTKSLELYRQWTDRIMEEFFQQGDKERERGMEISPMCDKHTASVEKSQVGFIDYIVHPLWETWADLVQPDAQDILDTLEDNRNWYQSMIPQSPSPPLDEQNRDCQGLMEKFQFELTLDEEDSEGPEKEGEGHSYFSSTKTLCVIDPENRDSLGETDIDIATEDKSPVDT
T1 sequence (Q07343 with tags, fused parts or gaps): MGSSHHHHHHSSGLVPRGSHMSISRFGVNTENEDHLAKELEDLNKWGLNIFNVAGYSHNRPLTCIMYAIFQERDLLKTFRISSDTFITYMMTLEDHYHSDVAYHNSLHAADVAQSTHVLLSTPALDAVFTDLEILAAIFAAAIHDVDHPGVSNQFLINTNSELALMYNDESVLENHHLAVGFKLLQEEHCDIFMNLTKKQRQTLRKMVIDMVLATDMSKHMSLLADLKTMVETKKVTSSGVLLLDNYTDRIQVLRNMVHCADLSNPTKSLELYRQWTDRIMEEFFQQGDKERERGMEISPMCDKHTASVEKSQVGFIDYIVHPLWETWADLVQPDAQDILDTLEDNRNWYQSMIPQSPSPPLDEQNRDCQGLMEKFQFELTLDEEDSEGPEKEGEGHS
T2 sequence (Q08499 380-756): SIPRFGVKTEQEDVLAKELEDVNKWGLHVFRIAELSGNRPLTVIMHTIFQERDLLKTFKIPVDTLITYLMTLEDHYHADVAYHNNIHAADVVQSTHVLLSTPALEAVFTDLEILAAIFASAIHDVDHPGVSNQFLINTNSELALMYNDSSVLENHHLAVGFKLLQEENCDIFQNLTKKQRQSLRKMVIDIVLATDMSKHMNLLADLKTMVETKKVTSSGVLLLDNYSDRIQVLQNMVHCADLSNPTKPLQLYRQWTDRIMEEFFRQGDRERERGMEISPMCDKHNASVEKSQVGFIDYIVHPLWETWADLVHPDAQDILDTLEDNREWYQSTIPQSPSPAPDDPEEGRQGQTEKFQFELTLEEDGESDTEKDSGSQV

In the case of `CCOC(=O)c1c(Nc2ccccc2OC)sc(C(=O)c2ccc(Br)cc2)c1N` [Compound 1-1, 4-Amino-5-(4-bromo-benzoyl)-2-(2-methoxy-phenylamino)-thiophene-3-carboxylic acid ethyl ester], the IC50 (in experiment [1] (setting [4]); at PDE4D (setting [5]); in experiment [2] (setting [6]); in experiment [3]) was below 10 µM in each case.
As to `COc1ccccc1Nc1sc(C(=O)c2ccc(C)cc2)c(N)c1C#N` [Compound 1-2, 4-Amino-2-(2-methoxy-phenylamino)-5-(4-methyl-benzoyl)-thiophene-3-carbonitrile], the IC50 (in experiment [1] (setting [4]); at PDE4D (setting [5]); in experiment [2] (setting [6]); in experiment [3]) was below 10 µM throughout.
For the compound `NC(=O)c1c(Nc2ccccc2)sc(C(=O)c2ccccc2)c1N` [Compound 1-12, 4-Amino-5-benzoyl-2-phenylamino-thiophene-3-carboxylic acid amide], the IC50 (in experiment [1] (setting [4]); at PDE4D (setting [5]); in experiment [2] (setting [6]); in experiment [3]) was above 10 µM each time.
As to `N#Cc1c(Nc2ccccc2)sc(C(=O)c2ccccc2)c1N` [Compound 1-16, 4-Amino-5-benzoyl-2-phenylamino-thiophene-3-carbonitrile], the IC50 is below 10 µM in experiment [1] (setting [4]), above 10 µM on PDE4D (setting [5]), above 10 µM in experiment [2] (setting [6]) and above 10 µM in experiment [3].
As to `N#Cc1c(Nc2ccc(Cl)cc2)sc(C(=O)c2sccc2Cl)c1N` [Compound 1-17, 4-Amino-2-(4-chloro-phenylamino)-5-(3-chloro-thiophene-2-carbonyl)-thiophene-3-carbonitrile], the IC50 (in experiment [1] (setting [4]); on PDE4D (setting [5]); in experiment [2] (setting [6]); in experiment [3]) was below 10 µM throughout.
As for `N#Cc1c(Nc2ccc(Cl)cc2)sc(C(=O)c2ccc(Cl)cc2Cl)c1N` [Compound 1-18, 4-Amino-2-(4-chloro-phenylamino)-5-(2,4-dichloro-benzoyl)-thiophene-3-carbonitrile], the IC50 (in experiment [1] (setting [4]); at PDE4D (setting [5]); in experiment [2] (setting [6]); in experiment [3]) was below 10 µM in each case.
For `CCOC(=O)c1c(Nc2ccccc2OC)sc(C(=O)c2ccccc2)c1N` [Compound 1-21, 4-Amino-5-benzoyl-2-(2-methoxy-phenylamino)-thiophene-3-carboxylic acid ethyl ester], the IC50 (in experiment [1] (setting [4]); at PDE4D (setting [5]); in experiment [2] (setting [6]); in experiment [3]) was below 10 µM each time.
As to `CCOC(=O)c1c(Nc2ccccc2F)sc(C(=O)c2ccc(Cl)cc2)c1N` [Compound 1-22, 4-Amino-5-(4-chloro-benzoyl)-2-(2-fluoro-phenylamino)-thiophene-3-carboxylic acid ethyl ester], the IC50 (in experiment [1] (setting [4]); at PDE4D (setting [5]); in experiment [2] (setting [6]); in experiment [3]) was below 10 µM throughout.
With `COc1ccc(C(=O)c2sc(NC3CCCC3)c(C#N)c2N)c(OC)c1` [Compound 1-43, 4-Amino-2-cyclopentylamino-5-(2,4-dimethoxy-benzoyl)-thiophene-3-carbonitrile], the IC50 (in experiment [1] (setting [4]); at PDE4D (setting [5]); in experiment [2] (setting [6]); in experiment [3]) was below 10 µM in each case.
As to `COc1ccc(Nc2sc(C(=O)c3cc(-c4ccc(Cl)cc4Cl)no3)c(N)c2C#N)cc1` [Compound 1-164, 4-Amino-5-[3-(2,4-dichloro-phenyl)-isoxazole-5-carbonyl]-2-(4-methoxy-phenylamino)-thiophene-3-carbonitrile], the IC50 was below 10 µM in experiment [1] (setting [4]), below 10 µM at PDE4D (setting [5]) and above 10 µM in experiment [3].
`CC(C)NC(=O)c1cc(C(=O)c2sc(NC3CCCC3)c(C#N)c2N)on1` [Compound 1-189, 5-(3-Amino-4-cyano-5-cyclopentylamino-thiophene-2-carbonyl)-isoxazole-3-carboxylic acid isopropylamide]: the IC50 (in experiment [1] (setting [4]); at PDE4D (setting [5]); in experiment [3]) was below 10 µM in each case.
Take `N#Cc1c(NC2CCCC2)sc(C(=O)c2cc(C(=O)NC3CC3)no2)c1N` [Compound 1-190, 5-(3-Amino-4-cyano-5-cyclopentylamino-thiophene-2-carbonyl)-isoxazole-3-carboxylic acid cyclopropylamide]: the IC50 (in experiment [1] (setting [4]); on PDE4D (setting [5]); in experiment [3]) was below 10 µM in each case.
On to `N#Cc1c(Nc2ccc(Oc3ccccc3)cc2)sc(C(=O)C2CCCC2)c1N` [Compound 1-195, 4-Amino-5-cyclopentanecarbonyl-2-(4-phenoxy-phenylamino)-thiophene-3-carbonitrile], for which the IC50 in experiment [1] (setting [4]) and in experiment [3] was below 10 µM each time.
With `Nc1c(C(=O)c2cc(-c3ccccc3)no2)sc(NC2CCCC2)c1C(=O)O` [Compound 1-237, 4-Amino-2-cyclopentylamino-5-(3-phenyl-isoxazole-5-carbonyl)-thiophene-3-carboxylic acid], the IC50 in experiment [1] (setting [4]), in experiment [2] (setting [6]) and in experiment [3] was below 10 µM in each case.
Take `Cc1c(Nc2ccccc2)sc(C(=O)c2ccc(Cl)cc2)c1N` [Compound 1-238, (3-Amino-4-methyl-5-phenylamino-thiophen-2-yl)-(4-chloro-phenyl)-methanone]: the IC50 in experiment [1] (setting [4]), in experiment [2] (setting [6]) and in experiment [3] was below 10 µM each time.
Regarding `Cc1c(Nc2ccc(Oc3ccccc3)cc2)sc(C(=O)c2ccccc2)c1N` [Compound 1-239, [3-Amino-4-methyl-5-(4-phenoxy-phenylamino)-thiophen-2-yl]-phenyl-methanone], the IC50 in experiment [1] (setting [4]) was below 10 µM; in experiment [2] (setting [6]), above 10 µM; in experiment [3], above 10 µM.
For the compound `CCc1c(Nc2ccc(Oc3ccccc3)cc2)sc(C(=O)c2ccccc2)c1N` [Compound 1-243, [3-Amino-5-ethyl-5-(4-phenoxy-phenylamino)-thiophen-2-yl]-phenyl-methanone], the figures for the IC50 in experiment [1] (setting [4]), in experiment [2] (setting [6]) and in experiment [3] were below 10 µM, below 10 µM and above 10 µM, respectively.
For `CC(C)C(C)Nc1sc(C(=O)c2cc(-c3ccc(Cl)c(Cl)c3)no2)c(N)c1C#N` (centres unmarked) [Compound 1-246, 4-Amino-5-[3-(3,4-dichloro-phenyl)-isoxazole-5-carbonyl]-2-(1,2-dimethyl-propylamino)-thiophene-3-carbonitrile], the values for the IC50 (in experiment [1] (setting [4]); at PDE4D (setting [5]); in experiment [3]) were below 10 µM, above 10 µM and above 10 µM, respectively.
Consider `Nc1nc(Nc2ccc(Cl)cc2)sc1C(=O)C1CCCC1` [Compound 2-92, [4-Amino-2-(4-chloro-phenylamino)-thiazol-5-yl]-cyclopentyl-methanone], for which the IC50 is below 10 µM in experiment [1] (second part of Table 2B (2-23 to 2-103), column 3, column is PDE4B in first part, read-out: IC 50 vs. indicated assay h TNFα); below 10 µM on PDE4D (second part of Table 2B (2-23 to 2-103), column 5, column is PDE4D in first part, read-out: IC 50 vs. indicated assay h TNFα); below 10 µM in experiment [2] (second part of Table 2B (2-23 to 2-103), column 4, column is PDE4B2 in first part, read-out: IC 50 vs. indicated assay h TNFα).
